The results in this text go back to publication PMC4457528, “Identification of Novel Small Molecule Inhibitors of Oncogenic RET Kinase” (PLoS ONE, 2015).

Where two headings read alike, the source gives them in different places.

What all share (test): KinomeScan kinase panel, single concentration 10 µM
Format in all cases: binding

Assay [1] concerns the target T1, KinomeScan kinase panel (Homo sapiens, UniProt O75676).
T1 construct: purchased DiscoveRx (KinomeScan)
The following applies: 10 µM, read-out: score (%).

In assay [2] the target is T2, KinomeScan kinase panel (Homo sapiens, UniProt O75914).
T2 construct: purchased DiscoveRx (KinomeScan)
The following applies: PAK3, 10 µM; read-out: score (%).

Assay [3] addresses T3, KinomeScan kinase panel (Homo sapiens, UniProt P04626).
T3 construct: purchased DiscoveRx (KinomeScan)
The following applies: ERBB2, 10 µM; read-out: score (%).

Assay [4] has as its target T4, KinomeScan kinase panel (Homo sapiens, UniProt P09619).
T4 construct: purchased DiscoveRx (KinomeScan)
The following applies: PDGFRB, 10 µM; read-out: score (%).

The target in assay [5] is T5, KinomeScan kinase panel (Homo sapiens, UniProt P0C1S8).
T5 construct: purchased DiscoveRx (KinomeScan)
The following applies: kinase WEE2; 10 µM; read-out: score (%).

The target of assay [6] is T6, KinomeScan kinase panel (Homo sapiens, UniProt P22607, G697C).
T6 construct: purchased DiscoveRx (KinomeScan)
The following applies: FGFR3(G697C), 10 µM; read-out: score (%).

Assay [7] deals with T7, KinomeScan kinase panel (Homo sapiens, UniProt P37173).
T7 construct: purchased DiscoveRx (KinomeScan)
The following applies: read-out: score (%).

The target of assay [8] is T8, KinomeScan kinase panel (Homo sapiens, UniProt P49336).
T8 construct: purchased DiscoveRx (KinomeScan)
The following applies: CDK8, 10 µM.

Assay [9] has as its target T9, KinomeScan kinase panel (Homo sapiens, UniProt P49760).
T9 construct: purchased DiscoveRx (KinomeScan)
The following applies: CLK2, 10 µM; read-out: score (%).

The target of assay [10] is T10, KinomeScan kinase panel (Homo sapiens, UniProt P51812).
T10 construct: purchased DiscoveRx (KinomeScan)
The following applies: 10 µM, read-out: score (%).

The target of assay [11] is T11, KinomeScan kinase panel (Homo sapiens, UniProt Q00537).
T11 construct: purchased DiscoveRx (KinomeScan)
The following applies: PCTK2, 10 µM; read-out: score (%).

The target of assay [12] is T12, KinomeScan kinase panel (Homo sapiens, UniProt Q02763).
T12 construct: purchased DiscoveRx (KinomeScan)
The following applies: read-out: score (%).

The target in assay [13] is T13, KinomeScan kinase panel (Homo sapiens, UniProt Q13043).
T13 construct: purchased DiscoveRx (KinomeScan)
T13 sequence (Q13043 1-487): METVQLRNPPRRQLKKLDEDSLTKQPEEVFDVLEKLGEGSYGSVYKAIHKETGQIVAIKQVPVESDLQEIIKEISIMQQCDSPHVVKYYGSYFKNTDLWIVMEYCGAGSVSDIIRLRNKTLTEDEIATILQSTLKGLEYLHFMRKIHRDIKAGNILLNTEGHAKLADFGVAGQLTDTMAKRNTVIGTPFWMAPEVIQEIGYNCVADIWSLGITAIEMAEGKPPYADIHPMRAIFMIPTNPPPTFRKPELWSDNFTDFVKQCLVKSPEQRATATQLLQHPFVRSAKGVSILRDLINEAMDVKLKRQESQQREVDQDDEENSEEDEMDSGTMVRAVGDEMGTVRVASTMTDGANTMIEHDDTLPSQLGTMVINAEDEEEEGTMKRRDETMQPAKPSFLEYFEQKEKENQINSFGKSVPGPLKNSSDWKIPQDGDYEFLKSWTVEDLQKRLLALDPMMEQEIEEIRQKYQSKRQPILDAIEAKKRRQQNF
The following applies: MST1, 10 µM.

Assay [14] addresses T14, KinomeScan kinase panel (Homo sapiens, UniProt Q13554).
T14 construct: purchased DiscoveRx (KinomeScan)
The following applies: CAMK2B, 10 µM; read-out: score (%).

Assay [15] addresses T15, KinomeScan kinase panel (Homo sapiens, UniProt Q15349).
T15 construct: purchased DiscoveRx (KinomeScan)
The following applies: 10 µM, read-out: score (%).

For assay [16], the target named is T16, KinomeScan kinase panel (Homo sapiens, UniProt Q5VT25).
T16 construct: purchased DiscoveRx (KinomeScan)
The following applies: MRCKA, 10 µM; read-out: score (%).

For assay [17], the target named is T17, KinomeScan kinase panel (Homo sapiens, UniProt Q8TD08).
T17 construct: purchased DiscoveRx (KinomeScan)
T17 sequence (Q8TD08 1-544): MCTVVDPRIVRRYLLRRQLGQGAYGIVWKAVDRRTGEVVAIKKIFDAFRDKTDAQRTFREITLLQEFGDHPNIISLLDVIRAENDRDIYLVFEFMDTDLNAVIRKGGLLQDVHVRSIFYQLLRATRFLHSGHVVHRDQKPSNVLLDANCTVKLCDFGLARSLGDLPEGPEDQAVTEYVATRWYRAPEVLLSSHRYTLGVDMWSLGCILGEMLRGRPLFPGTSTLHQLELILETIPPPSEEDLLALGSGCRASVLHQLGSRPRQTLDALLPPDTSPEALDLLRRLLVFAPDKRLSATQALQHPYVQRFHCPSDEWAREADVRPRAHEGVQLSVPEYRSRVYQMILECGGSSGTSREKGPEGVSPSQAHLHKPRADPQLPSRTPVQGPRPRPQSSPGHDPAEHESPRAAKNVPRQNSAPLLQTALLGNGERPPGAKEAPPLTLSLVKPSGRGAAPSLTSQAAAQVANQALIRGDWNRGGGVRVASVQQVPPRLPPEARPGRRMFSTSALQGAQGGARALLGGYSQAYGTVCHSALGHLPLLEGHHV
The following applies: ERK8, 10 µM; read-out: score (%).

Assay [18] has as its target T18, KinomeScan kinase panel (Homo sapiens, UniProt Q92918).
T18 construct: purchased DiscoveRx (KinomeScan)
The following applies: read-out: score (%).

Assay [19] deals with T19, KinomeScan kinase panel (Homo sapiens, UniProt Q9C098).
T19 construct: purchased DiscoveRx (KinomeScan)
The following applies: DCAMKL3, 10 µM; read-out: score (%).

The target of assay [20] is T20, KinomeScan kinase panel (Homo sapiens, UniProt Q9H4B4).
T20 construct: purchased DiscoveRx (KinomeScan)
The following applies: read-out: score (%).

The target in assay [21] is T21, KinomeScan kinase panel (Homo sapiens, UniProt Q9HCP0).
T21 construct: purchased DiscoveRx (KinomeScan)
The following applies: CSNK1G1, 10 µM.

Where [22] appears, read: kinase RPS6KA4(Kin.Dom.1-N-terminal).
Where [23] appears, read: kinase RPS6KA4(Kin.Dom.2-C-terminal).

T16 sequence (Q5VT25 whole entry): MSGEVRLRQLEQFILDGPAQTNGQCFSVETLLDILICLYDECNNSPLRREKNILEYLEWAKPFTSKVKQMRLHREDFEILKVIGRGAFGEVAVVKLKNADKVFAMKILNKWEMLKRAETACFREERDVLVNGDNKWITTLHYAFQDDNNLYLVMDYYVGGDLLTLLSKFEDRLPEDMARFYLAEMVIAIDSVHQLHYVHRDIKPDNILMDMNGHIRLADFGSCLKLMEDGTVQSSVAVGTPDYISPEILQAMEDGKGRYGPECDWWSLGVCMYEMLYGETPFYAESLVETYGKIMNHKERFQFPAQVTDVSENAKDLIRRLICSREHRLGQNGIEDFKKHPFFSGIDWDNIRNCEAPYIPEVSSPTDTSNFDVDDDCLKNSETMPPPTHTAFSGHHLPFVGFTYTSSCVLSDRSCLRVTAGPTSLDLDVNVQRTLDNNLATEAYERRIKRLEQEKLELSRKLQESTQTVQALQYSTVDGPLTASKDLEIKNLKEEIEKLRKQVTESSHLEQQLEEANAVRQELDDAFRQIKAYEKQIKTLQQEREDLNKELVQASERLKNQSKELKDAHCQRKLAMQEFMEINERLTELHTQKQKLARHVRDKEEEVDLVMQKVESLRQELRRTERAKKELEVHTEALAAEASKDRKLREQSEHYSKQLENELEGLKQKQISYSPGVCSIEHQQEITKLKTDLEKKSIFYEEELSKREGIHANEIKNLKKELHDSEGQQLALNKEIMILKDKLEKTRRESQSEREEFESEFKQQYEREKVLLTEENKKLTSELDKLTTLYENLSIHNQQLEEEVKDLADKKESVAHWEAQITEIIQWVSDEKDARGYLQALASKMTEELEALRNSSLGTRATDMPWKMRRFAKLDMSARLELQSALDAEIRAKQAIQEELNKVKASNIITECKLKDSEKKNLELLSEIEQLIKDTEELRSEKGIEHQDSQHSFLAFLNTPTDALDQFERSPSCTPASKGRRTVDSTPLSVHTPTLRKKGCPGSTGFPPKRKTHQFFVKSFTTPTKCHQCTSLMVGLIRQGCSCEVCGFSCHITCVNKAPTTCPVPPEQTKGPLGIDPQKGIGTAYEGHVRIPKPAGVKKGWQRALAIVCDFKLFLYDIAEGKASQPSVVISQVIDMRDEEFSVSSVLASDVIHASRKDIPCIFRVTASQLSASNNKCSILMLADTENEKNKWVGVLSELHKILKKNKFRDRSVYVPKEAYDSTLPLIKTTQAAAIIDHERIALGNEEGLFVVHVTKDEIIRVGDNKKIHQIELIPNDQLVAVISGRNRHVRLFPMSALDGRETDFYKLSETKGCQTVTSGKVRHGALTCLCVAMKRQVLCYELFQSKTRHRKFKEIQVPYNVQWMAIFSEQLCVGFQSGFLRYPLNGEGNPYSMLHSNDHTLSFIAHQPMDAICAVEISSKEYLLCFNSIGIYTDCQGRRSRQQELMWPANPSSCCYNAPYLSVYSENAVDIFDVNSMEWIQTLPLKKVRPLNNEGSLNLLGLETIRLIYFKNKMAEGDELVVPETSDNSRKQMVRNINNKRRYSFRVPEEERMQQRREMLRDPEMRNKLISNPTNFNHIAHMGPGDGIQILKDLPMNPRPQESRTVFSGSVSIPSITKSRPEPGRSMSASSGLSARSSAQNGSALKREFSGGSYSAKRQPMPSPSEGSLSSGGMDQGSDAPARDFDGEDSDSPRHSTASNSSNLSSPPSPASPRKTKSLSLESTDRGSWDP
T3 sequence (P04626 23-1255): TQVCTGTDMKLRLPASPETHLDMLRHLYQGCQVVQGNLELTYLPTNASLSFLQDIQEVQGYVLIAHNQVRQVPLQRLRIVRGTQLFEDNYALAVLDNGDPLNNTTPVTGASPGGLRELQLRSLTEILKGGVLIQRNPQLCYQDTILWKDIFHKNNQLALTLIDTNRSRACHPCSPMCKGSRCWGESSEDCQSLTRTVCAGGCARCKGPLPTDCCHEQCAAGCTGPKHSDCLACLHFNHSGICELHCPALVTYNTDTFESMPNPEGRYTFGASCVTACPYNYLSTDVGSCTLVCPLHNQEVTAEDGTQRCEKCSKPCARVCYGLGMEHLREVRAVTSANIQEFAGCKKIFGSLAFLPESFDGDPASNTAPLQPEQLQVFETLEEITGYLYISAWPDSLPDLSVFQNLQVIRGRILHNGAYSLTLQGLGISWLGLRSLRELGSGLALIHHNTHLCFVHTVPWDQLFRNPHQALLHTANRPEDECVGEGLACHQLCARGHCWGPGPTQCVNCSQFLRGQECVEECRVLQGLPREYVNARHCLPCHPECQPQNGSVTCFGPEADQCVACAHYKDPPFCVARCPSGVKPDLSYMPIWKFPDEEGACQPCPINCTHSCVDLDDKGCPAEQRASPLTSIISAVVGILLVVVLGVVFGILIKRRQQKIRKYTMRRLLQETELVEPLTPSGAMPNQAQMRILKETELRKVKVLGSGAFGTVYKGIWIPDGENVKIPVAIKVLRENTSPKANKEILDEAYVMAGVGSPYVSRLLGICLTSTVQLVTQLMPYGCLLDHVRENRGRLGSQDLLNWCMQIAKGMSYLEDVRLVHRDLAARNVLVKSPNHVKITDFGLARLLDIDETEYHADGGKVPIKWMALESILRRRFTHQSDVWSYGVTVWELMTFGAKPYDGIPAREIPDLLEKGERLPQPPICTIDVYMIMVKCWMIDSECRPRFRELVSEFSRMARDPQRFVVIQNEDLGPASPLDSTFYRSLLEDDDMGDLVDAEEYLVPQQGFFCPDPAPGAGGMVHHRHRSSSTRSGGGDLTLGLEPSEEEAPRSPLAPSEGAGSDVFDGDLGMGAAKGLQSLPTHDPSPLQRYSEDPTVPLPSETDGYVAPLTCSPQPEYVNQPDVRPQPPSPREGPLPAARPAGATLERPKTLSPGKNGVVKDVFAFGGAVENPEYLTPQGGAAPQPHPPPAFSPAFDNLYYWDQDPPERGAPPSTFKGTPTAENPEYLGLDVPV
T7 sequence (P37173 23-567): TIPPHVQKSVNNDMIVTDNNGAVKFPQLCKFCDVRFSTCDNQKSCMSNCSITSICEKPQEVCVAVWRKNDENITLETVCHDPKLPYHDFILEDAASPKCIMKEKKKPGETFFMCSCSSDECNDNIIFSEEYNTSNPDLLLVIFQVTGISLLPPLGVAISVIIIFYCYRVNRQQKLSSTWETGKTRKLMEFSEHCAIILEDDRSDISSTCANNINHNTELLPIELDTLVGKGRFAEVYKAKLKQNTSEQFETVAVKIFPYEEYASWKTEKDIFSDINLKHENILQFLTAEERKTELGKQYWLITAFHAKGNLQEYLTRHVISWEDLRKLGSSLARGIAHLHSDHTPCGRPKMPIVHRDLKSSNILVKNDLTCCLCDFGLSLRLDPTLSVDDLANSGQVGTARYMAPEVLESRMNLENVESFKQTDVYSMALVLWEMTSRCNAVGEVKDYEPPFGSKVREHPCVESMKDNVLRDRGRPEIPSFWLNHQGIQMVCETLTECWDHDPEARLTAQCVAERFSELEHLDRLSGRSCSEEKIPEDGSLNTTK
T5 sequence (P0C1S8 whole entry): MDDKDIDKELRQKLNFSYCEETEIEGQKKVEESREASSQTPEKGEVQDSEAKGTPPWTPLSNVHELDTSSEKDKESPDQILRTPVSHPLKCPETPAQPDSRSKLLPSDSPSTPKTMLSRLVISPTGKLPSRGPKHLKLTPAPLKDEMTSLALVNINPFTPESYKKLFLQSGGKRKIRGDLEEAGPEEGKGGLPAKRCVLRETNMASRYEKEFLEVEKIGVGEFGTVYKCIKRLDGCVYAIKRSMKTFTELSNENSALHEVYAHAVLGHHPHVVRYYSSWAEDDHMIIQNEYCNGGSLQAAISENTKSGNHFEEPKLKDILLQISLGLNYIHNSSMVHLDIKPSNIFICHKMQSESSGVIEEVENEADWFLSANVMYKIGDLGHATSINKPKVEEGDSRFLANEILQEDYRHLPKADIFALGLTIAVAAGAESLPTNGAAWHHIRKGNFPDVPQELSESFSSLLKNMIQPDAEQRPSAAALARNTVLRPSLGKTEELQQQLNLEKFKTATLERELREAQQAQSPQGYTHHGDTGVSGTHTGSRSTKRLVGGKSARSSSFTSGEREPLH
T18 sequence (Q92918 whole entry): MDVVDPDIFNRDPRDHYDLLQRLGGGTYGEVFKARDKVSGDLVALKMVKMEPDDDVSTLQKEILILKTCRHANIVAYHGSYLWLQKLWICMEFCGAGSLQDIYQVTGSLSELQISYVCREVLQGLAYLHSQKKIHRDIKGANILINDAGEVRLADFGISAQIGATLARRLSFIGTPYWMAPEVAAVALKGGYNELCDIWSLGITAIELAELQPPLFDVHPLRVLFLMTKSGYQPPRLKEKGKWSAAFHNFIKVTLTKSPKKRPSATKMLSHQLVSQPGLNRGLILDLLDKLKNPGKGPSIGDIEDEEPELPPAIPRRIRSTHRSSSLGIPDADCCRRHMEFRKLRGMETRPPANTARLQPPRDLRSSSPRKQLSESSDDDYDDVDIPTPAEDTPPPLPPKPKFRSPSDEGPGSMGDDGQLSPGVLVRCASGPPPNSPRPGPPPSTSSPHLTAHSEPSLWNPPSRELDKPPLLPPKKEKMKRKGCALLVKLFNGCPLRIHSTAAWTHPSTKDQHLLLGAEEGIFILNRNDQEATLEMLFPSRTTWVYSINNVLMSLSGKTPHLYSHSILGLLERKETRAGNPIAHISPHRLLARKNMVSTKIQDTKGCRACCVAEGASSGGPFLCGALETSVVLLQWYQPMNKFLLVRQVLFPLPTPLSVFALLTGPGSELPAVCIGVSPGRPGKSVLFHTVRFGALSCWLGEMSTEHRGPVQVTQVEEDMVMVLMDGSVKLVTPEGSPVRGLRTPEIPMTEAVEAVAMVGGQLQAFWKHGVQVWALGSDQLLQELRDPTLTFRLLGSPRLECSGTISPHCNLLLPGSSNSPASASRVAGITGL

Take `CCN1CCN(Cc2ccc(NC(=O)c3ccc(C)c(NC(=O)c4cncc(-c5cccs5)c4)c3)cc2C(F)(F)F)CC1` [ALW-II-41-27]: the remaining binding at 10 µM at KinomeScan kinase panel [1] (setting [22]) is 6.3%; at KinomeScan kinase panel [1] (setting [23]), over 30%; at KinomeScan kinase panel [2] it was over 30%; at KinomeScan kinase panel [3], 11%; at KinomeScan kinase panel [4] it was 0%; at KinomeScan kinase panel [5] it was over 30%. Further, the remaining binding at 10 µM on KinomeScan kinase panel [6] is over 30%; on KinomeScan kinase panel [7] (kinase TGFBR2, 10 µM), 4.6%; on KinomeScan kinase panel [9], 2.4%; at KinomeScan kinase panel [10] (kinase RPS6KA3(Kin.Dom.1-N-terminal)) it was over 30%; on KinomeScan kinase panel [11] it was over 30%; on KinomeScan kinase panel [12] (kinase TIE2, 10 µM), 0.45%. Also, the remaining binding at 10 µM is over 30% on KinomeScan kinase panel [14]; over 30% at KinomeScan kinase panel [15] (kinase RPS6KA2(Kin.Dom.1-N-terminal)); over 30% at KinomeScan kinase panel [15] (kinase RPS6KA2(Kin.Dom.2-C-terminal)); over 30% on KinomeScan kinase panel [16]; over 30% at KinomeScan kinase panel [17]; 0.75% on KinomeScan kinase panel [18] (HPK1, 10 µM). For the same compound, the remaining binding at 10 µM at KinomeScan kinase panel [19] was over 30%; on KinomeScan kinase panel [20] (PLK3, 10 µM) it was over 30%. The “score (%)” value at KinomeScan kinase panel [8] is listed as 20%; at KinomeScan kinase panel [13], 21%; at KinomeScan kinase panel [21] it was “nb (Hits values higher than 30% were considered negative (no binding: nb))”.

Regarding `CCN1CCN(Cc2ccc(NC(=O)c3ccc(C)c(/C=C/c4cnc5[nH]ccc5c4Cl)c3)cc2C(F)(F)F)CC1` [HG-6-63-01, (E)-3-(2-(4-chloro-1H-pyrrolo[2,3-b]pyridin-5-yl)vinyl)-N-(4-((4-ethylpiperazin-1-yl)methyl)-3-(trifluoromethyl)phenyl)-4-methylbenzamide], the remaining binding at 10 µM at KinomeScan kinase panel [1] (RPS6KA4(Kin.Dom.1)) is over 30%; at KinomeScan kinase panel [1] (RPS6KA4(Kin.Dom.2)), over 30%; at KinomeScan kinase panel [2], 30%; at KinomeScan kinase panel [3], 21%; at KinomeScan kinase panel [4] it was 0%; on KinomeScan kinase panel [5] it was 15%. In addition, the remaining binding at 10 µM on KinomeScan kinase panel [6] was 2.4%; on KinomeScan kinase panel [7] (TGFBR2, 10 µM), 2.8%; at KinomeScan kinase panel [9] it was over 30%; on KinomeScan kinase panel [10] (RPS6KA3(Kin.Dom.1)), over 30%; at KinomeScan kinase panel [11], over 30%; on KinomeScan kinase panel [12] (TIE2, 10 µM) it was 0.1%. For the same compound, the remaining binding at 10 µM was over 30% on KinomeScan kinase panel [14]; 7.4% on KinomeScan kinase panel [15] (RPS6KA2(Kin.Dom.1)); over 30% on KinomeScan kinase panel [15] (RPS6KA2(Kin.Dom.2)); 12% at KinomeScan kinase panel [16]; over 30% on KinomeScan kinase panel [17]; 0.1% on KinomeScan kinase panel [18] (MAP4K1, 10 µM). Also, the remaining binding at 10 µM at KinomeScan kinase panel [19] is 2.5%; on KinomeScan kinase panel [20] (PLK3, 10 µM), over 30%. Besides, the results for the “score (%)” value at KinomeScan kinase panel [8], at KinomeScan kinase panel [13] and on KinomeScan kinase panel [21] were 9.6%, 26% and “nb (Hits values higher than 30% were considered negative (no binding: nb))”, respectively.

Consider `CCN1CCN(Cc2ccc(NC(=O)c3ccc(C)c(C#Cc4cccnc4)c3)cc2C(F)(F)F)CC1` [XMD15-44], for which the remaining binding at 10 µM on KinomeScan kinase panel [1] (setting [22]) is 30%; at KinomeScan kinase panel [1] (setting [23]), 99%; at KinomeScan kinase panel [2], 3.3%; on KinomeScan kinase panel [3], 0.5%; on KinomeScan kinase panel [4], 0%; on KinomeScan kinase panel [5], 100%. The remaining binding at 10 µM was 0.05% at KinomeScan kinase panel [6]; 1.3% on KinomeScan kinase panel [7] (kinase TGFBR2, 10 µM); over 30% on KinomeScan kinase panel [9]; 16% at KinomeScan kinase panel [10] (kinase RSK2(Kin.Dom.1-N-terminal)); 8.2% on KinomeScan kinase panel [11]; 0.05% on KinomeScan kinase panel [12] (kinase TIE2, 10 µM). For the same compound, the remaining binding at 10 µM on KinomeScan kinase panel [14] is over 30%; on KinomeScan kinase panel [15] (kinase RSK3(Kin.Dom.1-N-terminal)), 9.5%; on KinomeScan kinase panel [15] (kinase RSK3(Kin.Dom.2-C-terminal)), 30%; at KinomeScan kinase panel [16] it was over 30%; at KinomeScan kinase panel [17] it was 1.8%; at KinomeScan kinase panel [18] (HPK1, 10 µM), 0.4%. Moreover, the remaining binding at 10 µM is over 30% at KinomeScan kinase panel [19] and 90% on KinomeScan kinase panel [20] (kinase PLK3, 10 µM). The “score (%)” value at KinomeScan kinase panel [8] was 8.2%; on KinomeScan kinase panel [13], 23%; on KinomeScan kinase panel [21] it was “nb (Hits values higher than 30% were considered negative (no binding: nb))”.
